Reference: patent publication EP4667466A1, “PROTAC DEGRADERS OF MLLT1 AND/OR MLLT3” (priority 2024, dated 2025)

Biological target: T1, MLLT1 (Homo sapiens, UniProt Q03111)
T1 construct: endogenous in cells; host or cells: MV4-11 (ATCC CRL-9591)
T1 sequence (Q03111 1-559): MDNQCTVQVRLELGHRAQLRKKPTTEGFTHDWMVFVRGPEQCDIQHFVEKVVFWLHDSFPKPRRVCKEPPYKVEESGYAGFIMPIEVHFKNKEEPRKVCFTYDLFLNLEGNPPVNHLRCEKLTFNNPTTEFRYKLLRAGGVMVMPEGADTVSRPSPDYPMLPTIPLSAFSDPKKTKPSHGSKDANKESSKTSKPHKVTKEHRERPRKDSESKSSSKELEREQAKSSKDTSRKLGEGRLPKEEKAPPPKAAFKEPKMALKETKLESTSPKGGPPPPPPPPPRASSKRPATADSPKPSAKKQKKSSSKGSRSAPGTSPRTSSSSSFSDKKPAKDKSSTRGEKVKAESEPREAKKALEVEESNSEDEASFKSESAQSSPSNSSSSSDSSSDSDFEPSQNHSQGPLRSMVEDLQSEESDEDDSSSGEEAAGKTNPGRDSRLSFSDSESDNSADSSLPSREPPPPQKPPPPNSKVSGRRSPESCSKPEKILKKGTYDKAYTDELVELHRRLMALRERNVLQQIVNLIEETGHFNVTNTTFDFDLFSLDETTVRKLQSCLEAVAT
Assay: MLLT1 degradation assay (JESS automated chemiluminescent detection) in MV4-11 cells
Format: cell-based
Conditions: 24h, with respect to DMSO control
Description: MLLT1 degradation efficacy of compounds was tested in an automated chemiluminescent detection system (JESS, Cat# 004-650). MV4-11 (#CRL-9591, ATCC) cells were seeded at a density of 1.2 million cells/well in a non-treated 6-well cell culture plate in 2.4 mL of complete medium (IMDM + 10% FBS + 1X Penicillin-Streptomycin). 10 mM DMSO stocks were prepared, and cells were treated with three concentrations of test compounds viz. 1000, 100 and 10 nM at a final DMSO concentration of 0.1% and incubated for 24h at 37°C, 5% CO2. Post incubation, cells were centrifuged, washed with HBSS and lysed in 70 uL of RIPA buffer supplemented with Protease inhibitors (sc-24948; Santa Cruz). Subsequently, protein estimation was done using BCA protein assay kit (23225; Pierce). 4 ug protein lysate (4 uL of 1ug/uL lysate) was loaded into each well of the JESS cartridge (SM-WO01; Bio-techne) and the JESS run was performed using 1:900 dilution of anti-human MLLT1 antibody (14893; Cell signaling technology) and 1:1200 dilution of anti-human GAPDH antibody (2118; Cell signaling technology) with anti-rabbit secondary detection module (DM-001; Bio-Techne). Post run, data were analysed using "Compass for SW" software for chemiluminescent detection. The peak area for each band was used for the calculation of MLLT1 degradation with respect to DMSO control. Data is shown as "MLLT1 % degradation". Category A: A ≥ 75% degradation Category B: 50% ≤ B < 75% degradation Category C: 25% ≤ C < 50% degradation Category D: D < 25% degradation Table 1

Row | SMILES | inhibition at 0.01 µM | inhibition at 0.1 µM | inhibition at 1 µM
1 | Cc1nn(CCCCCCC2CCN(c3cccc(C(=O)N[C@H]4CCC(=O)NC4=O)n3)CC2)c2cc(C(=O)Nc3cc4[nH]c([C@H]5CCCN5C)cc4cn3)ccc12 [Example 73, 1-(6-(1-(6-(((S)-2,6-dioxopiperidin-3-yl)carbamoyl)pyridin-2-yl)piperidin-4-yl)hexyl)-3-methyl-N-(2-((R)-1-methylpyrrolidin-2-yl)-1H-pyrrolo[3,2-c]pyridin-6-yl)-1H-indazole-6-carboxamide] | 50 to 75% | ≥ 75% | ≥ 75%
2 | Cc1nn(CCCCCCCCC#Cc2cccc3c2CN(C2CCC(=O)NC2=O)C3=O)c2cc(C(=O)Nc3cc4[nH]c([C@H]5CCCN5C)cc4cn3)ccc12 (stereo partly drawn) [Example 54, 1-(10-(2-(2,6-dioxopiperidin-3-yl)-1-oxoisoindolin-4-yl)dec-9-yn-1-yl)-3-methyl-N-(2-((R)-1-methylpyrrolidin-2-yl)-1H-pyrrolo[3,2-c]pyridin-6-yl)-1H-indazole-6-carboxamide] | ≥ 75% | ≥ 75% | ≥ 75%
3 | Cc1nn(CCCCCC2CCN(c3cccc4c3C(=O)N(C3CCC(=O)NC3=O)C4=O)CC2)c2cc(C(=O)Nc3cc4[nH]c([C@H]5CCCN5C)cc4cn3)ccc12 (stereo partly drawn) [Example 29, 1-(5-(1-(2-(2,6-dioxopiperidin-3-yl)-1,3-dioxoisoindolin-4-yl)piperidin-4-yl)pentyl)-3-methyl-N-(2-((R)-1-methylpyrrolidin-2-yl)-1H-pyrrolo[3,2-c]pyridin-6-yl)-1H-indazole-6-carboxamide] | 50 to 75% | ≥ 75% | ≥ 75%
4 | Cc1nn(CCCCCC#Cc2cccc3c2C(=O)N(C2CCC(=O)NC2=O)C3=O)c2cc(C(=O)Nc3cc4[nH]c([C@H]5CCCN5C)cc4cn3)ccc12 (stereo partly drawn) [Example 33, 1-(7-(2-(2,6-dioxopiperidin-3-yl)-1,3-dioxoisoindolin-4-yl)hept-6-yn-1-yl)-3-methyl-N-(2-((R)-1-methylpyrrolidin-2-yl)-1H-pyrrolo[3,2-c]pyridin-6-yl)-1H-indazole-6-carboxamide] | 50 to 75% | 50 to 75% | ≥ 75%
5 | Cc1nn(CCCCCCCC#Cc2cccc(C(=O)N[C@H]3CCC(=O)NC3=O)n2)c2cc(C(=O)Nc3cc4[nH]c([C@H]5CCCN5C)cc4cn3)ccc12 [Example 42, 1-(9-(6-(((S)-2,6-dioxopiperidin-3-yl)carbamoyl)pyridin-2-yl)non-8-yn-1-yl)-3-methyl-N-(2-((R)-1-methylpyrrolidin-2-yl)-1H-pyrrolo [3,2-c]pyridin-6-yl)-1H-indazole-6-carboxamide] | 50 to 75% | ≥ 75% | ≥ 75%
6 | Cc1nn(CCCCCCCC#Cc2ccc(C(=O)N[C@H]3CCC(=O)NC3=O)nc2)c2cc(C(=O)Nc3cc4[nH]c([C@H]5CCCN5C)cc4cn3)ccc12 [Example 41, 1-(9-(6-(((S)-2,6-dioxopiperidin-3-yl)carbamoyl)pyridin-3-yl)non-8-yn-1-yl)-3-methyl-N-(2-((R)-1-methylpyrrolidin-2-yl)-1H-pyrrolo [3,2-c]pyridin-6-yl)-1H-indazole-6-carboxamide] | < 25% | 25 to 50% | 50 to 75%
7 | CN1CCC[C@@H]1c1cc2cnc(NC(=O)c3ccc4c(cnn4CCCCCCCCNc4cccc5c4C(=O)N(C4CCC(=O)NC4=O)C5=O)c3)cc2[nH]1 (stereo partly drawn) [Example 36, 1-(8-((2-(2,6-dioxopiperidin-3-yl)-1,3-dioxoisoindolin-4-yl)amino)octyl)-N-(2-((R)-1-methylpyrrolidin-2-yl)-1H-pyrrolo[3,2-c]pyridin-6-yl)-1H-indazole-5-carboxamide] | ≥ 75% | ≥ 75% | ≥ 75%
